Measured values: PMC8784342, “Investigation of sugar binding kinetics of the E. coli sugar/H^+ symporter XylE using solid-supported membrane-based electrophysiology” (The Journal of Biological Chemistry, 2021)
Values joined by “and” are separate entries in the source; they are usually repeats but may differ in a detail not shown here. Identical values can stand only once. Marks after values point to notes of the source that are not given here.

What was measured:
XylE [1] = molecular target: XylE; parameters: method as in PMID 23075985; conditions: read-out: KD, isothermal titration calorimetry; cited from earlier work
D27N XylE [2] = molecular target: T1, D27N XylE (Escherichia coli, UniProt P0AGF4, D27N); conditions: cited from earlier work
T1 construct: made in house; host or cells: E. coli BL21 DE3
T1 sequence (P0AGF4 whole entry D27N): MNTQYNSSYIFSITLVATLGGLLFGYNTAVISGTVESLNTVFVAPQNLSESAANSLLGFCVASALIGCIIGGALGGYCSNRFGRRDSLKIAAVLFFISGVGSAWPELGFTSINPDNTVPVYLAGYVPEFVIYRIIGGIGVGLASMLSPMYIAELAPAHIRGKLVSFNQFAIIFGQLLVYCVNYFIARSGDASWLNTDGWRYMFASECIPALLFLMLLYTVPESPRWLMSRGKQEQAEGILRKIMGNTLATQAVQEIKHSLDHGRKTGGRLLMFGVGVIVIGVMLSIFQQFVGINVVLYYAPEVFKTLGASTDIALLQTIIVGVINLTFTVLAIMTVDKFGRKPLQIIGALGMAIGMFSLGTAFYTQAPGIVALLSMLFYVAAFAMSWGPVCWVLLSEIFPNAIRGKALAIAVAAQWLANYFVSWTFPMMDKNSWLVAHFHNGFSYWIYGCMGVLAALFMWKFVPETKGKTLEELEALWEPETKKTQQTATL

wt XylE [3] = molecular target: T2, wt XylE (Escherichia coli, UniProt P0AGF4); parameters: made in house; host or cells: E. coli BL21 DE3; conditions: relative to D-xylose in wt XylE (100%); cited from earlier work
T2 sequence (P0AGF4 whole entry): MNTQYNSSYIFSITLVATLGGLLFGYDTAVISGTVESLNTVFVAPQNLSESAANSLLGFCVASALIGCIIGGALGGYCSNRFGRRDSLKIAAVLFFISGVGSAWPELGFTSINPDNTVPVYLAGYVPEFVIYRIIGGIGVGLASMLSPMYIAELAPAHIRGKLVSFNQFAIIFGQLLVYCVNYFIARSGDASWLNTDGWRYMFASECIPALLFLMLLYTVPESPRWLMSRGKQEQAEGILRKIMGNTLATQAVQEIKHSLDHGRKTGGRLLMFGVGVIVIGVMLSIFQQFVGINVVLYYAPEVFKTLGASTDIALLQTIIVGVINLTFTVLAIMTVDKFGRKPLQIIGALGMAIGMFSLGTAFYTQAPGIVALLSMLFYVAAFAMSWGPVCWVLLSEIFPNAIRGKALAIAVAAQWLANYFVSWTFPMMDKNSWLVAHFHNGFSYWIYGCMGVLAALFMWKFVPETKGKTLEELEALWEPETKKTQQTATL

XylE [4] = conditions: radioactively labeled sugars; read-out: KM, literature; cited from earlier work
wt XylE [5] = molecular target: T2, wt XylE; conditions: cited from earlier work
Q175I/L297F XylE = molecular target: T3, Q175I/L297F XylE (Escherichia coli, UniProt P0AGF4, L297F/Q175I); test: biochemical
T3 construct: made in house; host or cells: E. coli BL21 DE3
T3 sequence (P0AGF4 whole entry Q175I/L297F): as the sequence (P0AGF4 whole entry D27N) above, with N27D, Q175I, L297F counted along it
Protocol: (§1) Reconstitution of purified proteins (2–20 mg/ml) was carried out with E. coli phospholipids (Avanti Polar Lipids, E. coli polar lipid extract). Preformed liposomes (0.2–2 ml, 10 mg/ml) were dissolved in 1% (w/v) n-octyl-β-D-glucoside, and the protein suspension was mixed on ice to a concentration of 0.2 mg protein/mg lipid (LPR 5).
Wt XylE, wt FucP, and the mutant proteins were reconstituted using overnight incubation in 400 mg/ml BioBeads (SM-2 Adsorbent Media, Bio-Rad) at 4 °C. After reconstitution, the samples were diluted to 2.5 mg/ml lipid concentration, frozen in liquid nitrogen, and stored at −80 °C. […] We, therefore, applied the previously established n-octyl-β-D-glucoside dilution method (1:100) ([69]).
(§2) SSM measurements were performed as described ([20], [23]). After thawing the sample and sonication in a water bath, 30 μl of proteoliposomes (2.5 mg/ml lipid at LPR 5) was allowed to adsorb for 1 to 2 h to an octadecanethiol/phosphatidylcholine hybrid bilayer on a gold surface (the sensor).
(§3) For measurements, a single solution exchange configuration ([23]) was employed that consisted in three phases of 0.5 s duration each: Flow of nonactivating solution (NA), activating solution (A), and nonactivating solution (NA). Only the activating solution contained the sugar. When pH dependence is determined, pH of NA and A solutions during one experiment are kept constant. Between experiments using different pH values, the sensor was incubated at the new pH for 3 min to equilibrate the intraliposomal pH.
(§4) Instruments with different time resolution were used as required. […] Currents were recorded throughout the entire time and amplified with a current amplifier set to a gain of […] and a rise time of 10 ms (low time-resolution set up) or 3 ms (high time-resolution set up).
(§5) All NA solutions were buffered in 100 mM KPi at a given pH value. NA solutions used with LacY contained 1 mM DTT in addition. A solutions were made from NA solutions by adding the respective sugar at a given concentration to induce the symport reaction. Sugar concentration jumps initiated sugar-proton symport, and charge transfer was measured by capacitive coupling. Therefore, only transient currents were recorded.
(§6) Each dataset represented with error bars was generated by performing the same experiment on multiple sensors (n ≥ 3). Error bars represent standard deviations of the average value. When peak currents are averaged across sensors, datasets are normalized before averaging. When the protein catalyzes transport and PSS currents are negligible, the peak current of the transient represents a good approximation of the current generated by the steady-state symport activity of the transporter. In most cases, peak currents have been used to derive kinetic and thermodynamic parameters according to the equations given in Figure 2 (KM, Imax ∼ Vmax, Hill coefficient n), Figure 4 (KD and rate constants for sugar binding kon and release koff), and Figure 6 (pKa for proton binding and pKb for proton release). Reconstruction of transporter currents for analysis of biphasic currents has been performed as described previously ([70]). This is required when transport and PSS currents are observed at the same time.

D27N XylE [6] = molecular target: T1, D27N XylE; conditions: relative to D-xylose in wt XylE (100%); cited from earlier work
wt XylE [7] = molecular target: T2, wt XylE; test: biochemical; parameters: made in house; host or cells: E. coli BL21 DE3
Protocol: as §1
(§7) Wt XylE, wt FucP, and the mutant proteins were reconstituted using overnight incubation in 400 mg/ml BioBeads (SM-2 Adsorbent Media, Bio-Rad) at 4 °C. After reconstitution, the samples were diluted to 2.5 mg/ml lipid concentration, frozen in liquid nitrogen, and stored at −80 °C. For wt LacY and mutant proteins, this procedure was not successful. We, therefore, applied the previously established n-octyl-β-D-glucoside dilution method (1:100) ([69]).
as §2, §3, §4, §5, §6

D27N XylE [8] = molecular target: T1, D27N XylE; test: SSM-based electrophysiology, transport-deficient mutant D27N XylE (PSS currents, electrogenic binding); assay type: biochemical
Protocol: as §1, §7, §2, §3, §4, §5, §6

D46N FucP = molecular target: T4, D46N FucP (Escherichia coli, UniProt P11551, D46N); test: SSM-based electrophysiology, transport-deficient mutant D46N FucP (PSS currents); assay type: biochemical
T4 construct: made in house; host or cells: E. coli BL21 DE3
T4 sequence (P11551 whole entry D46N): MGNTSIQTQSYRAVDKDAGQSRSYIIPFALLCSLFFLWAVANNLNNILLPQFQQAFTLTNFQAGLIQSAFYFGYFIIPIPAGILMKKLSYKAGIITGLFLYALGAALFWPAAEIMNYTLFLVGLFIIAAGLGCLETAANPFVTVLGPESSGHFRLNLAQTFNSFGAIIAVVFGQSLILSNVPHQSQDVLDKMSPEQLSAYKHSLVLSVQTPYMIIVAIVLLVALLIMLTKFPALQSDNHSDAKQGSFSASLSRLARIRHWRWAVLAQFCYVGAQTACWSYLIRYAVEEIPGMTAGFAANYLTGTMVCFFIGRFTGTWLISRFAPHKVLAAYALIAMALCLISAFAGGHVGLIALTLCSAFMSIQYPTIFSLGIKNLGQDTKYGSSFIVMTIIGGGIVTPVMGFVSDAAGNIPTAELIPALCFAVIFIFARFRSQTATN
Protocol: as §1, §7, §2, §3, §4, §5, §6

wt FucP [9] = molecular target: T5, wt FucP (Escherichia coli, UniProt P11551); test: SSM-based electrophysiology, proteoliposomes with wt FucP; assay type: biochemical
T5 construct: made in house; host or cells: E. coli BL21 DE3
T5 sequence (P11551 1-438): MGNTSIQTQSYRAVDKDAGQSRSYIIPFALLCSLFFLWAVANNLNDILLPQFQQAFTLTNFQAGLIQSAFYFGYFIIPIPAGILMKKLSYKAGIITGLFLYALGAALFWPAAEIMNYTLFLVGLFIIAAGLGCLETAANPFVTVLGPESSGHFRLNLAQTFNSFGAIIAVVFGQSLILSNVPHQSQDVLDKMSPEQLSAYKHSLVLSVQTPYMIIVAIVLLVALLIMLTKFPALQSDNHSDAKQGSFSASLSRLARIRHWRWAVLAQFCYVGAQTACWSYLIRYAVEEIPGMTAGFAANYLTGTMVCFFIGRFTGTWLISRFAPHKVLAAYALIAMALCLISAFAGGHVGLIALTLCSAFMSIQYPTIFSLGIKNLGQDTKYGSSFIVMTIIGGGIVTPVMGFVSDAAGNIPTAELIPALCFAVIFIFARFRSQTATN
Protocol: as §1, §7, §2, §3, §4, §5, §6

wt FucP [10] = molecular target: T5, wt FucP; conditions: pH 7.6, main substrate, cited from earlier work
FucP = system: FucP; parameters: method as in PMID 2829831, PMID 8384447; conditions: radioactively labeled sugars; read-out: KM, literature; cited from earlier work

Molecule: OC1OC[C@@H](O)[C@H](O)[C@H]1O (stereo partly drawn) [D-xylose]
- Kd (XylE [1]): 400 µM
- activity in uptake assay (D27N XylE [2]): < 1%
- Radioactive counterflow activity (wt XylE [3]): 100% ^a
- Km (XylE [4]): 100 to 500 µM
- Imax (wt XylE [5]; pH 7.6, main substrate): 1.8 ± 0.5 nA
- pKa (wt XylE [5]; pH-dependent peak currents, acidic range): 4.6 ± 0.2
- pKb1 (wt XylE [5]; pH-dependent peak currents, alkaline range, double titration): ~7.5
- Km (wt XylE [5]; read-out: KM (mM) Michaelis–Menten equation, pH 7.6, main substrate, in Table 3 headed EC50): ~1.5 mM
- EC50 (Q175I/L297F XylE; EC50 (mM) (KM for transport, slow component), pH 7.6): ~1.5 mM
- Imax slow component normalized to D-xylose transport in wt XylE (100%) (Q175I/L297F XylE; pH 7.6): 22%
- Imax (nA) slow component (Q175I/L297F XylE; pH 7.6, reconstructed transporter current): 0.4 ± 0.1 nA
- IPeak (pA) fast component (Q175I/L297F XylE; pH 7.6, saturating substrate): 520 ± 90 pA
- pKa (Q175I/L297F XylE; reconstructed transporter currents, acidic range): 4.8 ± 0.1
- Radioactive counterflow activity (D27N XylE [6]): 90%
- PSS current higher than that for D-glucose (wt XylE [7]; independent of pH): 165 pA
- Q (pC) wt, PSS transferred charge (wt XylE [7]; pH 3.2, 30 mM substrate): 4.0 ± 1.4 (pH 3.2) pC
- Imax in percent of Imax of the main substrate (D-xylose) (wt XylE [7]; pH 7.6): 100%
- IPeak (pA) fast component (wt XylE [7]; pH 7.6, saturating substrate, transport current given as upper limit): <1800 pA
- Kd (D27N XylE [8]; KD (mM) mut, pH 7.6, hyperbolic fit of peak currents, in Table 3 headed EC50): 1 ± 0.1 mM
- Kd (D27N XylE [8]; KD from fit of concentration-dependent kobs, pH 7.6): 5.5 ± 2.1 mM
- Imax (nA) slow component (D27N XylE [8]; pH 7.6): <0.05 nA
- Q (pC) Mut, transferred charge (D27N XylE [8]; pH 7.6, 30 mM substrate): 6.8 ± 1.5 (pH 7.6) pC
- IPeak (pA) fast component (D27N XylE [8]; pH 7.6, saturating substrate): 500 pA and 500 ± 100 pA
- kobs (s^−1) mut (D27N XylE [8]; saturating substrate (30 mM), kobs = 1/τ, monoexponential fit, limited by time resolution): 300 ± 30 s⁻¹

Molecule: L-fucose
- induction of PSS currents (D46N FucP): induces PSS currents
- kobs (s^−1) mut (D46N FucP; 30 mM substrate, low time-resolution set up): 100 ± 20 ^a s^−1
- Q (pC) Mut, transferred charge (D46N FucP; pH 10.5, 30 mM substrate): −1.2 ± 0.6 (pH 10.5) pC
- KM lower than KM obtained for minor substrates (wt FucP [9]; pH 7.6): 7–12 fold
- Q (pC) wt, PSS transferred charge (wt FucP [9]; pH 10.5, 30 mM substrate, rough estimation): ∼0.5 ^b (pH 10.5) pC
- Imax (wt FucP [10]): 0.5 ± 0.2 nA
- Km (wt FucP [10]; read-out: KM (mM) Michaelis–Menten equation): 0.9 ± 0.1 mM
- Km (FucP): 20 to 40 µM
